{
  "source": "patent US20020187944A1",
  "about": "“Inhibition of human immunodeficiency virus reverse transcriptase” (priority 2001, published 2002)",
  "key": {"[1]": {"molecular_target": "T1, HIV-1 reverse transcriptase (Human immunodeficiency virus type 1 group M subtype B, UniProt P04585)", "T1 construct": "0.01 μg HIV-1 reverse transcriptase", "assay": "Inhibition of HIV reverse transcriptase, 3H-TTP incorporation on calf thymus DNA template", "format": "biochemical", "conditions": "for HIV RT Radioactivity: 60 minutes at 37° C.", "protocol": "(§1) Inhibition of HIV reverse transcriptase (RT) was studied in a one milliliter reaction mixture containing 12.5 μmol Tris-HCl (pH 8.3), 3 μmol MgCl2, 10 μmol KCl, 2.5 μmol dithiothreitol, 0.04 μmol of each dNTP, 1 μCi ^3H-TTP (50 Ci/mmol), 10 μl of DMSO containing 0-320 μg/ml of 9-O-methyl oxime erythromycin A (EMO), and 0.01 μg HIV-1 reverse transcriptase. DNA template (0.01 μg) from calf thymus was used as the substrate in the reaction. After 60 minutes incubation at 37° C., samples from the reaction were pipetted on 3 MM filter paper discs (Whatman), which were washed 5 times in cold trichloroacetic acid (5%) containing sodium pyrophosphate (0.01 M). After drying, the discs were counted in a toluene scintillation solution using a Beckman scintillation spectrometer. Reactions with DNA-dependent DNA polymerase (DNA pol I, GibcoBRL) or DNA-dependent RNA polymerase from E. coli were carried out as described above, except that ^3H-UTP replaced ^3H-TTP where appropriate."}, "[2]": {"molecular_target": "T2, DNA-dependent DNA polymerase (DNA pol I, GibcoBRL) (Escherichia coli, UniProt P00582)", "T2 construct": "purchased GibcoBRL", "T2 sequence (P00582 whole entry)": "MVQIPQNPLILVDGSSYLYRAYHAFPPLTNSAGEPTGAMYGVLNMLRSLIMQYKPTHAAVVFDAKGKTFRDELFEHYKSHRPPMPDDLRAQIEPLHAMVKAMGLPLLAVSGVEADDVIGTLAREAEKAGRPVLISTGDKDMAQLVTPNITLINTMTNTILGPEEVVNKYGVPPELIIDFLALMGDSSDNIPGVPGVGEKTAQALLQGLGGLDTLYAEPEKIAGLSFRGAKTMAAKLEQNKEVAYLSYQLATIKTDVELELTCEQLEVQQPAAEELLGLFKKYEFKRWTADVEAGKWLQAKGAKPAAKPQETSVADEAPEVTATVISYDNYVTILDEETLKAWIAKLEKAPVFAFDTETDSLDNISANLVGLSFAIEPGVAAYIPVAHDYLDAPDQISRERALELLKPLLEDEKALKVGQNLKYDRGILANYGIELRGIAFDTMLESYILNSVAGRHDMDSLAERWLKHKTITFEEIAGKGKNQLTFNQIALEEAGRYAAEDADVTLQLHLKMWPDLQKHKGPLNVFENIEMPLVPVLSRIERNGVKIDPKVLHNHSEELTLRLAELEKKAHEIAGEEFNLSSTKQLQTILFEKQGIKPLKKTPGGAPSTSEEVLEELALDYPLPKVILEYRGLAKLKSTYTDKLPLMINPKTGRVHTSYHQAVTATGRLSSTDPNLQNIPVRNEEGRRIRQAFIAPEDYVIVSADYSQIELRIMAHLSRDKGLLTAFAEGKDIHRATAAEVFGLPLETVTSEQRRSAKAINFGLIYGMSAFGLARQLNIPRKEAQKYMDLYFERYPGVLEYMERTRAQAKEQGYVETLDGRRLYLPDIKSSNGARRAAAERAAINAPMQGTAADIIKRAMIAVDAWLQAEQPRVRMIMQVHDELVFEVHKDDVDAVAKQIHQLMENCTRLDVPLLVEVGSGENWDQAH", "assay": "DNA-dependent DNA polymerase reaction, radiolabel incorporation", "format": "biochemical, E. coli", "protocol": "as §1"}, "[3]": {"molecular_target": "DNA-dependent RNA polymerase from E. coli (Escherichia coli, UniProt P0A8T7+P0A8V2)", "sequence (P0A8V2 whole entry)": "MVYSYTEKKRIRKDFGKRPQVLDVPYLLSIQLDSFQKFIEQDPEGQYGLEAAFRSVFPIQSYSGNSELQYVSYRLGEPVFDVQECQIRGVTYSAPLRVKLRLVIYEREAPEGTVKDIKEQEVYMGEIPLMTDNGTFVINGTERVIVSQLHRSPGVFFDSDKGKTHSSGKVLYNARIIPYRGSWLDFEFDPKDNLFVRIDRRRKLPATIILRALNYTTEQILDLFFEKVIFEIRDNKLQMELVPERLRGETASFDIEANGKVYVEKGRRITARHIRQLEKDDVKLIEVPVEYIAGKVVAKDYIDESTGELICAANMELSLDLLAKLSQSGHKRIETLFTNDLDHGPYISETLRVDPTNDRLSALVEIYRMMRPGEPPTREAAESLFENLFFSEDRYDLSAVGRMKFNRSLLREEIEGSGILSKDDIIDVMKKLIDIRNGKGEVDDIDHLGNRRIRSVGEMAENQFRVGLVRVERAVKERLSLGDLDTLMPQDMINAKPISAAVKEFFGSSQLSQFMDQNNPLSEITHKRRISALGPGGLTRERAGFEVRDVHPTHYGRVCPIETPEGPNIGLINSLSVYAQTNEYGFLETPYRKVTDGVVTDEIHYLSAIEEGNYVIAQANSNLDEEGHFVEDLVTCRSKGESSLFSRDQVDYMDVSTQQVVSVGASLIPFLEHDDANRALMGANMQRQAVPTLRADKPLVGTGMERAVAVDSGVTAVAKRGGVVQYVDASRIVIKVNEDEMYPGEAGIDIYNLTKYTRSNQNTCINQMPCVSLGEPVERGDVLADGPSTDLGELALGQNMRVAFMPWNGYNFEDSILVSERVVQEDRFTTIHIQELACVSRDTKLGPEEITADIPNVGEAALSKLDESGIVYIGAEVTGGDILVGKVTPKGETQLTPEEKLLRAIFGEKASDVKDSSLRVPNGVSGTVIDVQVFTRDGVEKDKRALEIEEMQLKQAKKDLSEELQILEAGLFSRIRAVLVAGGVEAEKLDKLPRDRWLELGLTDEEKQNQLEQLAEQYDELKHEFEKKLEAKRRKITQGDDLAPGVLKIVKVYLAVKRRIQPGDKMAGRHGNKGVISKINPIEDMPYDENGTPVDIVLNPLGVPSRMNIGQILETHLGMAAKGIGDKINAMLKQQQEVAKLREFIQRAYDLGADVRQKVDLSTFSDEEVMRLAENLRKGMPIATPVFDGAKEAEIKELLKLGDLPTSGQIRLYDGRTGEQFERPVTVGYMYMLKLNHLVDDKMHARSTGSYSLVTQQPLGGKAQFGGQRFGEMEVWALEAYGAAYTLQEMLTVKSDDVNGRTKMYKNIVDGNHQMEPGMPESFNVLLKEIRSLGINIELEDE", "sequence (P0A7Z4 whole entry, further chain)": "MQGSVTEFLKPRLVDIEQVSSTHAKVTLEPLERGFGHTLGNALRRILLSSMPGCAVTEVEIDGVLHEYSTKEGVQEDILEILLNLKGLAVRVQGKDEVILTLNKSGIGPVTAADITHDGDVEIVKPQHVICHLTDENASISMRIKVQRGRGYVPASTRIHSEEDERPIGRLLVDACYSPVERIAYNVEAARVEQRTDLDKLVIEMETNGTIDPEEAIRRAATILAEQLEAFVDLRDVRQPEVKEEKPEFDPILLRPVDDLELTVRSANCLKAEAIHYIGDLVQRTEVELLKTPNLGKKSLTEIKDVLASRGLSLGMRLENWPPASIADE", "sequence (P0A800 whole entry, further chain)": "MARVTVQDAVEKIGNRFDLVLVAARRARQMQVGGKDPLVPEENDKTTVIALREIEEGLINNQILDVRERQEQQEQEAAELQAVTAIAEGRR", "sequence (P0A8T7 whole entry)": "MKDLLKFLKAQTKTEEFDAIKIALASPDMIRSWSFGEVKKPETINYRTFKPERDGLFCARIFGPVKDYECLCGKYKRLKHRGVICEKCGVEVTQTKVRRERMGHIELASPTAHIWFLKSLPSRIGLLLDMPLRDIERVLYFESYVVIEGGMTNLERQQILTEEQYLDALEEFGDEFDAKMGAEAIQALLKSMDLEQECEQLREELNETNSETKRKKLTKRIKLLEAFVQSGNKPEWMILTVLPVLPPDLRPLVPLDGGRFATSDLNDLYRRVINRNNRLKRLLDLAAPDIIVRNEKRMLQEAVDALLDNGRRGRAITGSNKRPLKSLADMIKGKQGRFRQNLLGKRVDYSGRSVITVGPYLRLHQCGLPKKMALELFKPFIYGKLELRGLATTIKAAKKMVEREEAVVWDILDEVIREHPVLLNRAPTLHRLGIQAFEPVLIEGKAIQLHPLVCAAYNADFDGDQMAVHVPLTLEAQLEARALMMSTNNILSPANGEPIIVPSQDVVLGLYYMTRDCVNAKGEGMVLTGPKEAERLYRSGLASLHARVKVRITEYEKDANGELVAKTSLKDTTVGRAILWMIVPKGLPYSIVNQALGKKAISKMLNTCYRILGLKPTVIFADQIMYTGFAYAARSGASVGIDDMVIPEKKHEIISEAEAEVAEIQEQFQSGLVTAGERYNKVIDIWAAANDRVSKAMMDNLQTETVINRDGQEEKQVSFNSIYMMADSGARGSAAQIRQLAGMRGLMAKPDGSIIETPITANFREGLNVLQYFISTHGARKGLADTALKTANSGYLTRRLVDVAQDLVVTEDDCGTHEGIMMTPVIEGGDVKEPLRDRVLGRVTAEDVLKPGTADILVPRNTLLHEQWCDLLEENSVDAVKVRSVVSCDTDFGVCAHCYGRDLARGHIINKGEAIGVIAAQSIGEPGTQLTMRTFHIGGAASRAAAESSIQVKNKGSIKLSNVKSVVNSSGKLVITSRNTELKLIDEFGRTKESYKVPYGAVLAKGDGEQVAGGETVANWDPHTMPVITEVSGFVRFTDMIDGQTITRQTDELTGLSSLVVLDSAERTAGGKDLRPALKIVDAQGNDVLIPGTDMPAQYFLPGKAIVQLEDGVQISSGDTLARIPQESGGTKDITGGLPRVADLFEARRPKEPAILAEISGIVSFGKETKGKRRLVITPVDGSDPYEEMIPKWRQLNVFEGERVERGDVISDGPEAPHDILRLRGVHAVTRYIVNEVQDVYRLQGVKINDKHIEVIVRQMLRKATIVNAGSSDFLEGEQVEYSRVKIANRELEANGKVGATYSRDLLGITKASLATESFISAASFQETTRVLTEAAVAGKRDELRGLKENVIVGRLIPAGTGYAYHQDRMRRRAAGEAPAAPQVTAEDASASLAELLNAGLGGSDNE", "assay": "DNA-dependent RNA polymerase reaction, 3H-UTP incorporation", "format": "biochemical", "protocol": "as §1"}, "[4]": {"conditions": "gastric acid; stated without a test; cited from earlier work"}},
  "data": [
    {"smiles": "CC[C@H]1OC(=O)[C@H](C)[C@@H](O[C@H]2C[C@@](C)(OC)[C@@H](O)[C@H](C)O2)[C@H](C)[C@@H](O[C@@H]2O[C@H](C)C[C@H](N(C)C)[C@H]2O)[C@](C)(O)C[C@@H](C)/C(=N\\OC)[C@H](C)[C@@H](O)[C@]1(C)O", "note": "[EMO, 9-O-methyl oxime erythromycin A]", "values": [
      {"measurement": "HIV RT % Inhibition", "setting": "[1]; [EMO] 20 μg/ml", "result": 0.8, "unit": "%"},
      {"measurement": "HIV RT Radioactivity", "setting": "[1]; [EMO] 20 μg/ml", "result": 8490, "unit": "cpm"},
      {"measurement": "HIV RT % Inhibition", "setting": "[1]; [EMO] 40 μg/ml", "result": "−0.5", "unit": "%"},
      {"measurement": "HIV RT Radioactivity", "setting": "[1]; [EMO] 40 μg/ml", "result": 8600, "unit": "cpm"},
      {"measurement": "HIV RT % Inhibition", "setting": "[1]; [EMO] 80 μg/ml", "result": 20, "unit": "%"},
      {"measurement": "HIV RT Radioactivity", "setting": "[1]; [EMO] 80 μg/ml", "result": 6850, "unit": "cpm"},
      {"measurement": "HIV RT % Inhibition", "setting": "[1]; [EMO] 160 μg/ml", "result": 81, "unit": "%"},
      {"measurement": "HIV RT Radioactivity", "setting": "[1]; [EMO] 160 μg/ml", "result": 1625, "unit": "cpm"},
      {"measurement": "HIV RT % Inhibition", "setting": "[1]; [EMO] 320 μg/ml", "result": 85, "unit": "%"},
      {"measurement": "HIV RT Radioactivity", "setting": "[1]; [EMO] 320 μg/ml", "result": 1287, "unit": "cpm"},
      {"measurement": "DNA-dependent DNA polymerase % Inhibition", "setting": "[2]; [EMO] 80 μg/ml", "result": "−2", "unit": "%"},
      {"measurement": "DNA-dependent DNA polymerase Radioactivity", "setting": "[2]; [EMO] 80 μg/ml", "result": "12,800 cpm"},
      {"measurement": "DNA-dependent DNA polymerase % Inhibition", "setting": "[2]; [EMO] 160 μg/ml", "result": 1, "unit": "%"},
      {"measurement": "DNA-dependent DNA polymerase Radioactivity", "setting": "[2]; [EMO] 160 μg/ml", "result": "12,400 cpm"},
      {"measurement": "DNA-dependent DNA polymerase % Inhibition", "setting": "[2]; [EMO] 320 μg/ml", "result": 0, "unit": "%"},
      {"measurement": "DNA-dependent DNA polymerase Radioactivity", "setting": "[2]; [EMO] 320 μg/ml", "result": "12,600 cpm"},
      {"measurement": "DNA-dependent RNA polymerase % Inhibition", "setting": "[3]; [EMO] 80 μg/ml", "result": "−0.2", "unit": "%"},
      {"measurement": "DNA-dependent RNA polymerase Radioactivity", "setting": "[3]; [EMO] 80 μg/ml", "result": "33,000 cpm"},
      {"measurement": "DNA-dependent RNA polymerase % Inhibition", "setting": "[3]; [EMO] 160 μg/ml", "result": "−1", "unit": "%"},
      {"measurement": "DNA-dependent RNA polymerase Radioactivity", "setting": "[3]; [EMO] 160 μg/ml", "result": "32,800 cpm"},
      {"measurement": "DNA-dependent RNA polymerase % Inhibition", "setting": "[3]; [EMO] 320 μg/ml", "result": 0.5, "unit": "%"},
      {"measurement": "DNA-dependent RNA polymerase Radioactivity", "setting": "[3]; [EMO] 320 μg/ml", "result": "32,400 cpm"}
    ]},
    {"smiles": "CC[C@H]1OC(=O)[C@H](C)[C@@H](O[C@H]2C[C@@](C)(OC)[C@@H](O)[C@H](C)O2)[C@H](C)[C@@H](O[C@@H]2O[C@H](C)C[C@H](N(C)C)[C@H]2O)[C@](C)(O)C[C@@H](C)C(=O)[C@H](C)[C@@H](O)[C@]1(C)O", "note": "[Erythromycin A, erythromycin A]", "values": [
      {"measurement": "acid stability", "setting": "[4]", "result": "acid labile"}
    ]}
  ]
}
